Earlier results, collected in patent US11576886B2, “Constructs comprising fatty acids” (POLYREM LIMITED, priority 2017, dated 2023).

Tested on: Wnt/β-catenin signalling

| Structure (SMILES) | Wnt/β-catenin signalling |
| --- | --- |
| CNCCC(Oc1ccc(C(F)(F)F)cc1)c1ccccc1 (centres unmarked) [Fluoxetine] | increase Wnt/β-catenin signalling |
| COCCCC/C(=N\OCCN)c1ccc(C(F)(F)F)cc1 [Fluvoxamine] | increase Wnt/β-catenin signalling |
| O=C(CCCN1CCC(O)(c2ccc(Cl)cc2)CC1)c1ccc(F)cc1 [Haloperidol] | increase Wnt/β-catenin signalling |
| Cc1nc2n(c(=O)c1CCN1CCC(c3noc4cc(F)ccc34)CC1)CCCC2 [Risperidone] | increase Wnt/β-catenin signalling |
| COc1ccc(C(CN(C)C)C2(O)CCCCC2)cc1 (centres unmarked) [Venlafaxine] | increase Wnt/β-catenin signalling |
